target: T1, human plasma protein factor Xa (Homo sapiens, UniProt P00742); assay: Factor Xa IC50 determination: cleavage of paranitroanilide substrate S-2765 in 96-well plates; format: biochemical; details: fXa 1 nM, S-2765 100 μM, Tris buffered saline pH 7.4, room temperature
T1 construct: measure proteolytic activity of the enzyme (factor Xa); purchased Haematologic Technologies (Essex Junction, Vt.); host or cells: human plasma
Outline: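 Human plasma factor Xa (1 nM) preincubated 5 min at room temperature with inhibitor (0.01 nM–10 μM final) in Tris-buffered saline pH 7.4 with 5 mM CaCl2, 0.1% BSA, 5% DMSO. S-2765 at 100 μM final; hydrolysis at 405 nm over 2 min. IC50 from 4-parameter fit of initial velocities.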

T1 sequence (P00742 235-488 limits assumed): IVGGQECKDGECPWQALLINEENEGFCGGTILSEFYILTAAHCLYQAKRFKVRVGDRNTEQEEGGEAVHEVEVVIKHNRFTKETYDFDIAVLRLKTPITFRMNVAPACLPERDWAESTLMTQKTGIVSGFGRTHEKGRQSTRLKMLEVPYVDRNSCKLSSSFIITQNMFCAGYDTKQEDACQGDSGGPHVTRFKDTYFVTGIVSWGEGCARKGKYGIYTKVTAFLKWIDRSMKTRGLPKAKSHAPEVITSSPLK
T1 sequence (P00742 41-179 partner limits assumed): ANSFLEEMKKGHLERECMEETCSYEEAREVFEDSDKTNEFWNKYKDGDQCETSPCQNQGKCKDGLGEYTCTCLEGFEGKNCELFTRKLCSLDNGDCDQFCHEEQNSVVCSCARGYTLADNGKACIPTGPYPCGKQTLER

IC50 [nM] | SMILES
100 to 500 | COCCN(C)C(=N)c1ccc(C2=NOC(C)(CNC(=O)c3ccc(Cl)s3)C2)cc1 (stereo not shown) [Example 66, 5-Chloro-thiophene-2-carboxylic acid (3-{-4-[N-(2-methoxy-ethyl)-N-methyl-carbamimidoyl]-phenyl}-5-methyl-4,5-dihydro-isoxazol-5-ylmethyl)-amide]
≤ 100 | O=C(NCc1cc(-c2ccc(-n3ccccc3=O)cc2)no1)c1ccc(Cl)s1 [Example 289, 5-Chloro-N-((3-(4-(2-oxopyridin-1(2H)-yl)phenyl)isoxazol-5-yl)methyl)thiophene-2-carboxamide]
≤ 100 | N=C(c1ccc(-n2cc(CNC(=O)c3ccc(Cl)s3)cn2)cc1)N1CCCCC1 [Example 329, 5-Chloro-N-((1-(4-(imino(piperidin-1-yl)methyl)phenyl)-1H-pyrazol-4-yl)methyl)thiophene-2-carboxamide]
≤ 100 | COc1ccc(-c2ccc(-c3cc(CNC(=O)c4ccc(Cl)s4)on3)cc2)c(CN2CCCC2)c1 [Example 218, 5-Chloro-thiophene-2-carboxylic acid [3-(4′-methoxy-2′-pyrrolidin-1-ylmethyl-biphenyl-4-yl)-isoxazol-5-ylmethyl]-amide]
≥ 500 | O=C(NCc1cc(-c2ccc(I)cc2)no1)c1ccc(Cl)s1 [Example 288, 5-Chloro-N-((3-(4-iodophenyl)isoxazol-5-yl)methyl)thiophene-2-carboxamide]
≤ 100 | O=C(NCc1cn(-c2ccc(N3CCOCC3=O)nc2)nn1)c1ccc(Cl)s1 [Example 387, 5-Chloro-N-((1-(6-(3-oxomorpholino)pyridin-3-yl)-1H-1,2,3-triazol-4-yl)methyl)thiophene-2-carboxamide]
≤ 100 | O=C(NCC1CC(c2ccc(Nc3ccncc3)cc2)=NO1)c1ccc(Cl)s1 (stereo not shown) [Example 226, 5-Chloro-thiophene-2-carboxylic acid {3-[4-(pyridin-4-ylamino)-phenyl]-4,5-dihydro-isoxazol-5-ylmethyl}-amide]
≥ 500 | COc1ccc(-c2cc(CNC(=O)c3ccc(Cl)s3)on2)cc1 [Example 152, 5-Chloro-thiophene-2-carboxylic acid [3-(4-methoxy-phenyl)-isoxazol-5-ylmethyl]-amide]
≤ 100 | N=C(c1ccc(-n2cnc(CNC(=O)c3ccc(Cl)s3)c2)cc1)N1CCCC1 [Example 367, 5-Chloro-N-((1-(4-(imino(pyrrolidin-1-yl)methyl)phenyl)-1H-imidazol-4-yl)methyl)thiophene-2-carboxamide]
≤ 100 | N=C(c1ccc(-n2cc(CNC(=O)c3ccc(Cl)s3)nn2)c(F)c1)N1CCC1 [Example 321, N-((1-(4-(Azetidin-1-yl(imino)methyl)-2-fluorophenyl)-1H-1,2,3-triazol-4-yl)methyl)-5-chlorothiophene-2-carboxamide]
≥ 500 | CN(C)Cc1cccc(-c2cccc(-c3cc(CNC(=O)c4ccc(Cl)s4)on3)c2)c1 [Example 270, 5-Chloro-thiophene-2-carboxylic acid [3-(3′-dimethylaminomethyl-biphenyl-3-yl)-isoxazol-5-ylmethyl]-amide]
≥ 500 | O=C(NCc1cc(-c2cccc(Br)c2)no1)c1ccc(Cl)s1 [Example 4, 5-Chloro-thiophene-2-carboxylic acid [3-(3-bromo-phenyl)-isoxazol-5-ylmethyl]-amide]
≤ 100 | COc1cc(C(=N)N2CCCC2)ccc1C1=NOC(CNC(=O)c2ccc(Cl)s2)C1 (stereo not shown) [Example 104, 5-Chloro-thiophene-2-carboxylic acid {3-[4-(imino-pyrrolidin-1-yl-methyl)-2-methoxy-phenyl]-4,5-dihydro-isoxazol-5-ylmethyl}-amide]
≥ 500 | O=C(NCC1CC(c2ccccc2)=NO1)c1ccc(Cl)s1 (stereo not shown) [Example 144, 5-Chloro-thiophene-2-carboxylic acid (3-phenyl-4,5-dihydro-isoxazol-5-ylmethyl)-amide]
≤ 100 | CN(Cc1ccco1)C(=N)c1ccc(C2=NOC(C)(CNC(=O)c3ccc(Cl)s3)C2)cc1 (stereo not shown) [Example 67, 5-Chloro-thiophene-2-carboxylic acid {3-[4-(N-furan-2-ylmethyl-N-methyl-carbamimidoyl)-phenyl]-5-methyl-4,5-dihydro-isoxazol-5-ylmethyl}-amide]
≤ 100 | CNC(=N)c1ccc(-c2cc(CN(C)C(=O)c3ccc(Cl)s3)on2)cc1 [Example 48, 5-Chloro-thiophene-2-carboxylic acid methyl-{3-[4-(N-methylcarbamimidoyl)-phenyl]-isoxazol-5-ylmethyl}-amide]
≥ 500 | CN(C)C(=N)c1ccc(-c2cc(CN(C)C(=O)c3ccc(Cl)s3)on2)cc1 [Example 35, 5-Chloro-thiophene-2-carboxylic acid {3-[4-(N,N-dimethyl-carbamimidoyl)-phenyl]-isoxazol-5-ylmethyl}-methyl-amide]

IC50 [nM] | SMILES
≤ 100 | Cc1ccn(-c2ccc(C3=NOC(CNC(=O)c4ccc(Cl)s4)C3)cc2)c(=O)c1 (stereo not shown) [Example 284, 5-Chloro-N-((3-(4-(4-methyl-2-oxopyridin-1(2H)-yl)phenyl)-4,5-dihydroisoxazol-5-yl)methyl)thiophene-2-carboxamide]
≤ 100 | O=C(NCc1cn(-c2ccc(-n3ccccc3=O)cn2)nn1)c1ccc(Cl)s1 [Example 309, 5-Chloro-N-((1-(5-(2-oxopyridin-1(2H)-yl)pyridin-2-yl)-1H-1,2,3-triazol-4-yl)methyl)thiophene-2-carboxamide]
≤ 100 | CN(C)C(=N)c1ccc(-c2cc(CNC(=O)c3ccc(Cl)s3)ccc2F)cc1 [Example 377, N-((3-(4-(N,N-Dimethylcarbamimidoyl)phenyl)-4-fluorophenyl)methyl)-5-chlorothiophene-2-carboxamide]
≤ 100 | CN1CCCN(c2ccc(C3=NOC(CNC(=O)c4ccc(Cl)s4)C3)c(F)c2)CC1 (stereo not shown) [Example 248, 5-Chloro-thiophene-2-carboxylic acid {3-[2-fluoro-4-(4-methyl-[1,4]diazepan-1-yl)-phenyl]-4,5-dihydro-isoxazol-5-ylmethyl}-amide]
≤ 100 | COc1cccn(-c2ccc(C3=NOC(CNC(=O)c4ccc(Cl)s4)C3)cc2)c1=O (stereo not shown) [Example 282, 5-Chloro-N-((3-(4-(3-methoxy-2-oxopyridin-1(2H)-yl)phenyl)-4,5-dihydroisoxazol-5-yl)methyl)thiophene-2-carboxamide]
≤ 100 | CN(C)C(=N)c1ccc(-c2cc(CNC(=O)c3ccc(Cl)s3)on2)c(N(C)C)c1 [Example 94, 5-Chloro-thiophene-2-carboxylic acid {3-[2-dimethylamino-4-(N,N-dimethyl-carbamimidoyl)-phenyl]-isoxazol-5-ylmethyl}-amide]
≤ 100 | O=C(NCc1cn(-c2ccc(N3CCOCC3=O)cc2)nn1)c1ccc(Cl)s1 [Example 301, 5-Chloro-N-((1-(4-(3-oxomorpholino)phenyl)-1H-1,2,3-triazol-4-yl)methyl)thiophene-2-carboxamide]
≤ 100 | CCOc1cc(C(=N)N(C)C)ccc1C1=NOC(CNC(=O)c2ccc(Cl)s2)C1 (stereo not shown) [Example 106, 5-Chloro-thiophene-2-carboxylic acid {3-[4-(N,N-dimethyl-carbamimidoyl)-2-ethoxy-phenyl]-4,5-dihydro-isoxazol-5-ylmethyl}-amide]
≥ 500 | CC(C)N1CCC(C2=NOC(CNC(=O)c3ccc(Cl)s3)C2)CC1 (stereo not shown) [Example 171, 5-Chloro-thiophene-2-carboxylic acid [3-(1-isopropyl-piperidin-4-yl)-4,5-dihydro-isoxazol-5-ylmethyl]-amide]
≤ 100 | CSc1cc(C(=N)N2CCCC2)ccc1-c1cc(CNC(=O)c2ccc(Cl)s2)on1 [Example 142, 5-Chloro-thiophene-2-carboxylic acid {3-[4-(imino-pyrrolidin-1-yl-methyl)-2-methylsulfanyl-phenyl]-isoxazol-5-ylmethyl}-amide]
≤ 100 | CCCN(C)C(=N)c1ccc(C2=NOC(CNC(=O)c3ccc(Cl)s3)C2)cc1 (stereo not shown) [Example 17, 5-Chloro-thiophene-2-carboxylic acid {3-[4-(N-methyl-N-propyl-carbamimidoyl)-phenyl]-4,5-dihydro-isoxazol-5-ylmethyl}-amide]
≥ 500 | CC1(CNC(=O)c2ccc(Cl)s2)CC(c2ccc(Cl)cc2)=NO1 (stereo not shown) [Example 154, 5-Chloro-thiophene-2-carboxylic acid [3-(4-chloro-phenyl)-5-methyl-4,5-dihydro-isoxazol-5-ylmethyl]-amide]
≥ 500 | O=C(NCc1cc(C2CCN(Cc3ccccc3)CC2)no1)c1ccc(Cl)s1 [Example 178, 5-Chloro-thiophene-2-carboxylic acid [3-(1-benzyl-piperidin-4-yl)-isoxazol-5-ylmethyl]-amide]
≥ 500 | CCOC(=O)C1CCN(C(=N)c2ccc(-c3cc(CN(C)C(=O)c4ccc(Cl)s4)on3)cc2)CC1 [Example 39, 1-{[4-(5-{[(5-Chloro-thiophene-2-carbonyl)-methyl-amino]-methyl}-isoxazol-3-yl)-phenyl]-imino-methyl}-piperidine-4-carboxylic acid ethyl ester]
≤ 100 | CC(C)Oc1cc(C(=N)N2CCCC2)ccc1C1=NOC(CNC(=O)c2ccc(Cl)s2)C1 (stereo not shown) [Example 111, 5-Chloro-thiophene-2-carboxylic acid {3-[4-(imino-pyrrolidin-1-yl-methyl)-2-isopropoxy-phenyl]-4,5-dihydro-isoxazol-5-ylmethyl}-amide]
≤ 100 | O=C(NCc1cn(-c2ccc(-n3ccccc3=O)cc2O)nn1)c1ccc(Cl)s1 [Example 307, 5-Chloro-N-((1-(2-hydroxy-4-(2-oxopyridin-1(2H)-yl)phenyl)-1H-1,2,3-triazol-4-yl)methyl)thiophene-2-carboxamide]
≤ 100 | C[C@H](NC(=O)c1ccc(Cl)s1)c1cc(-c2ccc(C(=N)N3CCCCC3)cc2)no1 [Example 56, (S)-5-Chloro-thiophene-2-carboxylic acid (1-{3-[4-(imino-piperidin-1-yl-methyl)-phenyl]-isoxazol-5-yl}-ethyl)-amide]

Reference: US8377974B2 (Millennium Pharmaceuticals, Inc., priority 2004, dated 2013)
